Several values for one entry are separate records, joined by “and”; a condition that tells them apart may be missing. Identical values can stand only once.
Key:
METTL3-14 [1] = target: T1, METTL3-14 (Homo sapiens, UniProt Q86U44); assay: Cellular degradation assay (Western blot) in NOMO-1; format: cell-based; set-up: METTL3–14 degradation up to 70% of the endogenous level; endogenous in cells; host or cells: MOLM-13, KASUMI-1, THP-1, NOMO-1; conditions: NOMO-1, 2 μM, 24 h
Method: (§1) MOLM-13, NOMO-1, THP-1, Kasumi-1, PC3, and DU145 cell lines were obtained from DSMZ-German Collection of Microorganisms and Cell Cultures GmbH. Cells were cultured in RPMI 1640 medium (11875093, Thermo Fisher Scientific) containing 10% FBS (16140071, Thermo Fisher Scientific) and 1% penicillin-streptomycin (15140122, Thermo Fisher Scientific) in 5% CO2 at 37 °C in a humidified incubator, with maintained cell densities at 0.5–1 × 10^6 cells/mL. All cell lines were tested negative for mycoplasma contamination (PCR-based assay by Microsynth, Switzerland).
(§2) METTL3 (and METTL14) protein degradation was monitored by Western blot. Cells were treated with the indicated concentration of PROTACs or DMSO control (0.1% (v/v)) for 24h, 37 °C with 5% CO2. Samples were then collected and lysed with RIPA buffer with added protease inhibitors (11697498001, Roche). After SDS-PAGE, proteins were transferred to a nitrocellulose membrane, blocked (with 5% milk, 0.5% BSA in TBST buffer), and incubated overnight with primary antibodies. The following antibodies were used: GAPDH (no. 2118, Cell Signaling, 1:4000), β-actin (ab8226, Abcam, 1:2000), METTL3 (ab195352, Abcam, 1:1000), and METTL14 (ab220031, Abcam, 1:1000). Membranes were scanned using an LI-COR Odyssey DLx imager after incubation with appropriate secondary antibodies (antimouse IgG IRDye 680RD (926–68072, LI-COR, 1:10000) and goat anti-Rabbit IgG IRDye 800CW (926–32211, LI-COR, 1:10000)). Densitometry was performed in Image Studio Lite software and analyzed in GraphPad Prism 9.

Cereblon (CRBN) = target: T2, Cereblon (CRBN) (Homo sapiens, UniProt Q96SW2); assay: Cellular thermal shift assay (CETSA) in MOLM-13, Cereblon; format: cell-based; conditions: MOLM-13, 54 °C
T2 construct: endogenous in cells; host or cells: MOLM-13
T2 sequence (Q96SW2 whole entry): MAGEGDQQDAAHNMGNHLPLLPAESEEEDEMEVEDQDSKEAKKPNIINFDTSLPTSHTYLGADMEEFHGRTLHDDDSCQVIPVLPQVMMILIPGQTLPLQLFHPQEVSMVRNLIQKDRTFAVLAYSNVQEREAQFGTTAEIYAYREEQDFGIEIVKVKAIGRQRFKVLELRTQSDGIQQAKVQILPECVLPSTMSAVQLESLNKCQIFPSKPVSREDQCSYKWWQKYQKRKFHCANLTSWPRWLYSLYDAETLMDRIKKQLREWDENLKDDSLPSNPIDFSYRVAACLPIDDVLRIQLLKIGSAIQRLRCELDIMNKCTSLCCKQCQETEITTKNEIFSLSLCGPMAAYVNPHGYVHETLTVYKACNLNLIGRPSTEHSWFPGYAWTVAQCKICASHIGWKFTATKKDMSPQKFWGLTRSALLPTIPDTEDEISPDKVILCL

METTL3-14 [2] = target: T1, METTL3-14; assay: Cellular degradation assay (Western blot) in KASUMI-1; format: cell-based; set-up: METTL3–14 degradation up to 70% of the endogenous level; endogenous in cells; host or cells: MOLM-13, KASUMI-1, THP-1, NOMO-1; conditions: KASUMI-1, 2 μM, 24 h
Method: as §1, §2

[3] = target: T3, ternary complex CRBN/PROTAC/METTL3–14 (Homo sapiens, UniProt Q86U44+Q96SW2); assay: FRET-based ternary complex formation assay (TCFA); format: binding; conditions: for TCFA amplitude (mean ± SEM): Hook curve amplitude, fraction of the maximum of compound 16; for ECmax (nM) ± SD: PROTAC concentration at the maximum of the signal in the TCFA; for ECmax: TCFA, peak of the Hook curve
T3 construct: methyltransferase domains (MTD) of METTL3 (residues 354–580); His6 (N, cleaved yes); made in house; host or cells: METTL3-MTD/METTL14-MTD: baculovirus/Sf9; CRBN-TBD: E. coli Rosetta (DE3), co-expressed with BirA
T3 sequence (Q86U44 354-580): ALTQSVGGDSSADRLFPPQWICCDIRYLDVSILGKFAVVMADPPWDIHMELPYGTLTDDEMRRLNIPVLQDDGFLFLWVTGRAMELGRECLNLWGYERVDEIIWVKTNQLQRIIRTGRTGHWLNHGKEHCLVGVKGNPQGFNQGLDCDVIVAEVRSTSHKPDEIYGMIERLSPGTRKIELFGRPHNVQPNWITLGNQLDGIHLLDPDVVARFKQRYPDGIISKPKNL
T3 sequence (Q9HCE5 107-395 partner limits assumed): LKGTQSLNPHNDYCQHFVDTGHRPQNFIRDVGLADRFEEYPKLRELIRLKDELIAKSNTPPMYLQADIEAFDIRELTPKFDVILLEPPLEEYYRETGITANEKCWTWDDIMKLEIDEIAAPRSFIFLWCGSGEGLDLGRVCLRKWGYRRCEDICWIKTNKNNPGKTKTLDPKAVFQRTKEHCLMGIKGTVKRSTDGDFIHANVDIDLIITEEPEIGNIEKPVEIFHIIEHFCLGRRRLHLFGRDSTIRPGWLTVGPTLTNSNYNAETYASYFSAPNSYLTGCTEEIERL
T3 sequence (Q96SW2 318-442): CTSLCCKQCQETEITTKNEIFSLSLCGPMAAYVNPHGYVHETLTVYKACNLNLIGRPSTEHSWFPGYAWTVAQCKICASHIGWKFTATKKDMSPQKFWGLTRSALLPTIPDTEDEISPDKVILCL
Procedure, shortened: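 HTRF/TR-FRET measurement of PROTAC-induced complex between GST-tagged METTL3–14 and biotinylated CRBN^TBD-Avi (10 nM final) with 0.8 nM Eu^3+ anti-GST antibody, in 50 mM HEPES pH 7.5, 150 mM NaCl, 0.1% BSA, 100 mM KF. Emission ratio used; ECmax and Hook-curve amplitude taken from Gaussian fit or highest-signal data point.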

METTL14 = assay: Cellular degradation assay (Western blot), METTL14 in MOLM-13; format: cell-based, human; conditions: MOLM-13, 24 h, 2 μM compound
Procedure, shortened: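 Cells in RPMI 1640 with 10% FBS were treated with PROTACs or 0.1% DMSO for 24h at 37 °C. METTL3 and METTL14 levels in RIPA lysates were read by Western blot with infrared secondary detection and densitometry, normalised against GAPDH or β-actin.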

METTL3 = target: T4, METTL3 (Homo sapiens, UniProt Q86U44); assay: Cellular degradation assay (Western blot) in PC3; format: cell-based; conditions: PC3, 2 μM, 24 h
T4 construct: METTL3–14 degradation up to 70% of the endogenous level; endogenous in cells; host or cells: MOLM-13, PC3, DU145
T4 sequence (Q86U44 2-580 limits assumed): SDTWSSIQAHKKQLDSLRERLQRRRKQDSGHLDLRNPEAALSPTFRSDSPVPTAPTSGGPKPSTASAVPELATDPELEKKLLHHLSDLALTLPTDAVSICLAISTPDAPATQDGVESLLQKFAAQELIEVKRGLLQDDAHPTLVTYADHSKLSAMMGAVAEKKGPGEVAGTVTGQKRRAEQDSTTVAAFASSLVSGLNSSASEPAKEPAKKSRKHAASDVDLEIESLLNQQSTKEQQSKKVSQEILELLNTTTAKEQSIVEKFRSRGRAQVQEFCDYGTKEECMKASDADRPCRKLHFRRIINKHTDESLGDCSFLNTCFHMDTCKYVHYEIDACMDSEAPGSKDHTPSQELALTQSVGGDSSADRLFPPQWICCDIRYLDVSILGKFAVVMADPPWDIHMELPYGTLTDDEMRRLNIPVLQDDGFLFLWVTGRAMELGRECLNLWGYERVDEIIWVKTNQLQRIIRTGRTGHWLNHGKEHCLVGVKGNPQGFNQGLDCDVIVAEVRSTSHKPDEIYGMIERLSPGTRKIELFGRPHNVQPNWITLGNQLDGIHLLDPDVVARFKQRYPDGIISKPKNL
T4 sequence (Q9HCE5 whole entry partner): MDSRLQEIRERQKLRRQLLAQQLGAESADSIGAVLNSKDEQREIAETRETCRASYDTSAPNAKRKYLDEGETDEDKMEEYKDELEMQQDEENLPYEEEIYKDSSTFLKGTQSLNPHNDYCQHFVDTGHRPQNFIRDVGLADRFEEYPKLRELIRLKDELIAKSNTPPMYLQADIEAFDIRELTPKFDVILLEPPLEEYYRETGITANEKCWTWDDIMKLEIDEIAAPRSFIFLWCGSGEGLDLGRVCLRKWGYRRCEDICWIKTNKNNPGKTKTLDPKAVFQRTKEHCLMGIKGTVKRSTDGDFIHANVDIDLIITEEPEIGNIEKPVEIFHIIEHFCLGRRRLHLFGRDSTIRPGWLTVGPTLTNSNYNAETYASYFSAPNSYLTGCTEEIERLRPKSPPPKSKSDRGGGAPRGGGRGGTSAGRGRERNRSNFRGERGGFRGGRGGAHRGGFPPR
Method: as §1
as §2, with “Membranes were scanned using an LI-COR Odyssey DLx imager after incubation with appropriate secondary antibodies (antimouse IgG IRDye 680RD (926–68072, LI-COR, 1:10000) and goat anti-Rabbit IgG IRDye 800CW (926–32211, LI-COR, 1:10000)).” left out

PC3 cell line = assay: Cell viability assay (CellTiter-Glo) on PC3; format: cell-based, human
Method: as §1
Cells were seeded in white clear-bottom 96-well plates at a density of 6–20 × 10^3 cells/well in 50 μL of the complete RPMI medium and treated with 50 μL of increasing concentrations of the indicated compounds dissolved in DMSO (final concentration of compounds 0.01–10 μM) or DMSO only as a negative control (0.01% (v/v)) and incubated for 72 h at 37 °C with 5% CO2. Cell viability was determined using a CellTiter-Glo luminescent cell viability assay (Promega) based on the detection of ATP according to the manufacturer’s instructions. 100 μL of the reagent was added to each well and incubated for 10 min at room temperature. The luminescence was recorded using a Tecan Infinite […] M1000 microplate reader from the top. Background luminescence value was obtained from wells containing the CellTiter-Glo reagent and medium without cells. The resulting data was analyzed in GraphPad Prism 9.

T1 sequence (Q86U44 2-580 limits assumed): as the sequence (Q86U44 2-580 limits assumed) above
T1 sequence (Q9HCE5 whole entry partner): as the sequence (Q9HCE5 whole entry partner) above

SMILES | degradation levels of METTL3 and METTL14 (METTL3-14 [1]) | stabilization of Cereblon (CETSA) (Cereblon (CRBN)) | degradation of both METTL3 and METTL14 relative to MOLM-13 (METTL3-14 [2]) | TCFA amplitude (mean ± SEM) [3] | ECmax (nM) ± SD [3] [nM] | ECmax [3] | MOLM-13 West. blot at 24h 2 μM comp conc. Degradation (%) of METTL14 (METTL14) | reduction of METTL3 (METTL3) [%] | antiproliferative effect (PC3 cell line) | degradation of the POI (METTL3-14 [2]) [%]
CC1(C)CCN(Cc2cc(F)c(N3CC(=O)NC4(CCN(c5cc(NCc6cccc(CNC(=O)CCCNc7cccc8c7C(=O)N(C7CCC(=O)NC7=O)C8=O)c6)ncn5)CC4)C3)cc2F)CC1 (centres unmarked) [Compound 14] | comparable to those in MOLM-13 | visible | higher degradation | 1.2 ± 0.0 | 250 ± 0 | submicromolar | 52% and 52 ± 6% |  |  | 
CC1(C)CCN(Cc2cc(F)c(N3CC(=O)NC4(CCN(c5cc(NCc6cccc(CNC(=O)CCCCCCCCCCn7cc(CNc8cccc9c8C(=O)N(C8CCC(=O)NC8=O)C9=O)nn7)c6)ncn5)CC4)C3)cc2F)CC1 (centres unmarked) [Compound 20] | comparable to those in MOLM-13 |  | higher degradation | 0.6 ± 0.0 | 860 ± 240 | submicromolar | 51% and 51 ± 10% | 48 |  | 
CC1(C)CCN(Cc2cc(F)c(N3CC(=O)NC4(CCN(c5cc(NCC6CCN(C(=O)CCCNc7cccc8c7C(=O)N(C7CCC(=O)NC7=O)C8=O)CC6)ncn5)CC4)C3)cc2F)CC1 (centres unmarked) [Compound 22] | comparable to those in MOLM-13 |  | higher degradation | 1.1 ± 0.1 | 190 ± 90 |  | 55 ± 11% | 64 | antiproliferative effect | 
CC1(C)CCN(Cc2cc(F)c(N3CC(=O)NC4(CCN(c5cc(NCC6CCN(C(=O)CCCCCNc7cccc8c7C(=O)N(C7CCC(=O)NC7=O)C8=O)CC6)ncn5)CC4)C3)cc2F)CC1 (centres unmarked) [Compound 24] | comparable to those in MOLM-13 |  | higher degradation | 1.2 ± 0.0 | 470 ± 80 | submicromolar | 50 ± 13% |  | antiproliferative effect | 
CC1(C)CCN(Cc2cc(F)c(N3CC(=O)NC4(CCN(c5cc(NCCN6CCN(C(=O)CCCCCNc7cccc8c7C(=O)N(C7CCC(=O)NC7=O)C8=O)CC6)ncn5)CC4)C3)cc2F)CC1 (centres unmarked) [Compound 30] | comparable to those in MOLM-13 |  | higher degradation | 1.0 ± 0.1 | 70 ± 30 | submicromolar |  |  | antiproliferative effect | 70
